Patent US5279956A, “Activated protein C polypeptides and anti-peptide antibodies, diagnostic methods and systems for inhibiting activated protein C” (The Scripps Research Institute, priority 1991, dated 1994)
No end group written: not given here.

Assays:
APC = molecular target: T1, APC (Homo sapiens, UniProt P04070); assay: APC anticoagulant activity, APTT and Xa-1-stage coagulation assays (mean or both); assay type: biochemical; settings: measured at 36 μM peptide
T1 construct: begins at amino acid residue position 158 and ends at 419; The light chain is 155 amino acid residues in length; tissue Factor IX concentrate from Immuno AG, Vienna; thrombin from Enzyme Research Laboratories
Method: The effect of the synthetic peptides on APC anticoagulant activity were determined using the APTT assay in the presence of either normal citrate anticoagulated plasma (NHP) or protein S depleted plasma (PSDP). The assays were performed essentially as described. See Marlar et al., Blood, 59:1067-1072 […]; Suzuki et al., J. Biol. Chem., 258:163-168 (1983); Gruber et al., Blood, 73:639-642 (1989); Ohlin et al., Biochem., 29:644-651 (1990). NHP was purchased from George King Bio-Medical, Inc. (Overland Park, Kans.). PSDP was prepared from a normal human citrate-anticoagulated plasma pool from ten healthy donors. Protein S was immunodepleted from the NHP by immunoaffinity chromatography of NHP over an anti-protein S antibody column to form PSDP. The anti-protein S antibody column was prepared by coupling 100 mg of a monoclonal, high-affinity, calcium-independent anti-PS antibody, designated S7, to 30 ml of CNBr-activated Sepharose 4B (Pharmacia) as described in Example 2c1).
For the APTT assay, APC was prepared as described in Example 2c2). […] The concentration of the APC used in the assay was initially optimized with respect to the sensitivity of the assay towards APC-induced prolongation of clotting time compared to clotting time without APC.
Once the optimal concentration of APC was determined, peptides from Table 2 were then separately admixed for a final concentration of 500 μM with 10 nM APC in 100 μl of TBS-BSA at pH 7.4 to form peptide-APC admixtures. The resulting admixtures were maintained for seven minutes at 37° C. Separate aliquots of peptides maintained under the same conditions in the absence of APC served as controls for the inhibitory effect of synthetic peptides on APC anticoagulant activity. After the maintenance period, 100 μl of NHP and 100 μl APTT-reagent Thrombosil (Ortho Diagnostics, Raritan, N.J.) were admixed into each peptide admixture and maintained for 200 seconds at 37° C. to form a pre-coagulation admixture. In some experiments, PSDP was used in the place of NHP to determine the effect of Protein S on the assay system. Coagulation was then initiated by the admixture of 100 μl of 30 mM CaCl2 in TBS prewarmed to 37° C. to each of the pre-coagulation admixtures. The time for clot formation was measured by an Electra 700 Automatic Coagulation Timer (Medical Laboratory Automation, Inc., Mount Vernon, N.Y.). Each peptide's effect was determined in duplicate.
The synthetic peptides listed in Table 4 are presented in the same order as listed in Table 2, i.e., are reproduced from Table 2. […] For peptides at a concentration of 500 μM that inhibited at least 50% of APC anticoagulant activity, analysis of dose-response was subsequently conducted. The column in Table 4 labeled "Inhibition of APC" represents the inhibition of APC anticoagulant activity measured with 500 μM peptide.
For testing the inhibition of the synthetic peptides on APC activity described above, Xa-1-stage coagulation assays were also performed as described. See Seegers et al., Thrombosis Res., 13:233-243 (1978); Marlar et al., supra; and Walker et al., J. Biol. Chem. 265:1484-1489 (1990).

[1] = Solubility of peptide in buffer solutions; assay type: physicochemical; settings: concentrations higher than 36 μM
Method: Purified peptides were separately resuspended in distilled water to form a dissolved peptide solution at a final concentration of 2.5 mM. Subsequently, […] containing 0.05M Tris hydroxymethyl aminomethanehydrochloride (Tris-HCl) at pH 7.4 (TBS-Az) 0.1M sodium chloride (NaCl), 0.02% sodium azide (NaN3). The pH of the solution was checked, and if necessary, adjusted to pH 7.4 with titrated amounts of 1M Tris-base. For peptides that appeared to be not completely soluble at 2.5 mM in TBS-Az, the partially dissolved peptide suspensions separately were centrifuged at 13,000×g to pellet the insoluble material. The molar concentrations in the resultant individual supernatants were estimated from the absorbance at 280 nm and 257 nm, respectively, for peptide solutions containing aromatic amino acids using a molar extinction coefficient of 5,600 M^-1 cm^-1 for tryptophan and 1,400 M^-1 cm^-1 for tyrosine at 280 nm, using a molar extinction coefficient of 200 M^-1 cm^-1 for phenylalanine at 257 nm. Peptides without aromatic amino acids and poor solubility in aqueous solutions were not evaluated in this invention.

anti-(390-404) antibody [2] = assay: Solid-phase ELISA: binding of anti-(390-404) antibody to immobilized peptides and PC; set-up: species or system rabbit
Method: To determine the immunospecificity of the rabbit antisera obtained in Example 2b, ELISA assays were performed. Briefly, 50 μl of either 50 μM peptide-(390-404) prepared in Example 1 or 10 μg/ml of PC or APC prepared in Example 2c in a buffer consisting of 0.05M sodium carbonate (Na2 CO3) and 0.02% NaN3 at pH 9.0 were admixed into the wells of microtiter plates. The plates were maintained at 37° C. for one hour to permit the antigens to become operatively affixed to the well walls. After washing the antigen-coated wells with TBS, the wells were blocked with 250 μl/well of 10% bovine serum albumin (BSA) (Sigma) in TBS for one hour at 22° C. The blocking solution was then removed and the wells were subsequently washed five times with 250 μl/well of maintenance buffer (0.05M Tris-HCl, 0.1M NaCl, 0.02% NaN3, 1 mg/ml BSA, 5 mM CaCl2, 0.01% Tween 20 at pH 7.4). Fifty μl of rabbit non-immune or specific antiserum serially diluted in maintenance buffer was then admixed to the washed wells and maintained for one hour at 37° C. to allow formation of a solid liquid phase immunoreaction products. The wells were then washed three times with maintenance buffer followed by admixture of 50 μl of 2.0 μg/ml of secondary antibody (polyclonal biotinylated goat-anti-rabbit-IgG) (Pierce Biochemicals) diluted in maintenance buffer to each well for the detection of immunoreactant products. The plates were maintained for 1 hour at 37° C. after which time the secondary antibody solution was removed. After washing the wells as described above, 50 μl of 2.0 μg/ml streptavidin-alkaline-phosphatase (Pierce Biochemicals) in maintenance buffer was admixed into each well and maintained for 30 minutes at 37° C. Detection of specific immunoreaction products was obtained by admixture of 150 μl/well of 5 mg/ml p-nitrophenylphosphate (PNPP) (Pierce Biochemicals) in 0.1M diethanolamine and 0.02% NaN3 at pH 9.6 followed by measurement of the change in absorbance at 405 nm over time using the EL312 Microplate Bio-Kinetics Reader and the KinetiCalc Software Program (Biotek Instruments, Inc., Vt.). Non-specific binding was considered as the measured absorbance in 10% BSA blocked wells which served as negative controls without the preceding coating of a specific protein or peptide. Under the described conditions, non-specific binding never exceeded more than 5% of the specific binding.
The specificity of immunoaffinity purified anti-(390-404) antibody towards peptide-(390-404) and PC was evaluated by measuring the binding in solid-phase ELISA of the antibody to immobilized peptides including -(384-398), -(390-404), -(396-410), -(404-390), and -K395A-(390-404) listed in Table 1 with their corresponding SEQ ID NO, and to PC. […]

anti-(390-404) antibody [3] = assay: Cross-competition ELISA: anti-(390-404) antibody binding to immobilized PC with fluid-phase competitors; set-up: species or system rabbit; settings: fluid-phase competitor
Method: FIG. 1 illustrates anti-(390-404) antibody binding to immobilized Protein C (PC) in the presence of fluid-phase PC, peptide-(390-404), -(404-390) and -K395A-(390-404). […] Before admixing 2 μg/ml anti-(390-404) antibody to PC-coated wells, the anti-(390-404) antibody was admixed with 0 to 200 μg/ml of either PC, 0 to 1000 μM peptide (-390-404), 0 to 1000 μM peptide-(404-390), or 0-200 μM peptide-K395A-(390-404) for 30 minutes at 37° C. Following biotinylated-goat-anti-rabbit-IgG and streptavidin-alkaline-phosphatase immunoreactions as described in Example 2c, bound anti-(390-404) antibody was detected by addition of 5 milligrams/milliliter (mg/ml) p-nitrophenylphosphate in 0.1M diethanolamine at pH 9.6 followed by measuring of the change in absorbance at 405 nm over time. The amount of anti-(390-404) specifically bound to PC coated wells in the absence of any competing protein was defined as 100%. […]
The specificity of anti-(390-404) antibody for peptide-(390-404) and PC was confirmed by cross-competition binding experiments. […] Bound anti-(390-404) antibody to immobilized PC in the presence of competitors was detected as described in Example 2c.

T1 sequence (P04070 212-461): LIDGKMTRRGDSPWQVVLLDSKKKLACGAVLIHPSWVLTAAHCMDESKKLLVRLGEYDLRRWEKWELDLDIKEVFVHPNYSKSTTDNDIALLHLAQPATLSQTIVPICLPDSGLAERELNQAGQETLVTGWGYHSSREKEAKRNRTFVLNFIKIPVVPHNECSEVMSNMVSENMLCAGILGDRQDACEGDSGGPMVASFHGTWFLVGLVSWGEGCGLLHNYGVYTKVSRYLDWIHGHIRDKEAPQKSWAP
T1 sequence (P04070 43-197): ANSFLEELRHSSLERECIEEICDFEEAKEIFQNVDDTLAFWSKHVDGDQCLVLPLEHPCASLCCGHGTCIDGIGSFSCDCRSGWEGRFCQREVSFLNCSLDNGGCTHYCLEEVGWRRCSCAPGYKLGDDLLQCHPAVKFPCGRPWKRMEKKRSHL

Substance | inhibition at 36 µM (APC) [%] | solubility in buffer solutions [1] | binding of anti-(390-404) antibody to immobilized peptide or PC (anti-(390-404) antibody [2]; solid-phase ELISA) | Anti-(390-404) (Absorbance/20 min.) (anti-(390-404) antibody [2]; wells coated with 50 μM peptide or 10 μg/ml PC, 2 μg/ml anti-(390-404) antibody, mean of duplicates) | competition with binding of anti-(390-404) antibody to immobilized PC (anti-(390-404) antibody [3]) | IC50 (anti-(390-404) antibody [3]; 2 μg/ml antibody, 10 μg/ml PC coated, read-out: Half-maximal inhibition of anti-(390-404) antibody binding to immobilized PC) [nM]
YGVYTAVSRYLDWIH-NH2 [peptide-K395A-(390-404), YGVYTAVSRYLDWIH] | 23 | limitations of solubility in buffer solutions |  |  |  | 
Protein C: human Protein C zymogen immunoaffinity-purified from plasma factor IX concentrate |  |  | Significant immunoreactivity | 249 | competed significantly | ~9.2
